76 compounds from PubChem BioAssay AID179 (DTP/NCI, 2004) can be followed below.

pEC50, pIC50: −log10 of the molar value. Where “and” joins values, the source holds several entries; their conditions need not be identical. Equal entries are not always repeated. Calls of active or inactive are those of the source.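 Rule for the calls: active = compounds giving half or more protection of infected cells from virus-caused growth loss, again on retest; inactive = the rest.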

The test concerns CEM cells HIV-1 protection, formazan growth assay. Kind of test: NCI AIDS Antiviral Assay. As to conditions: for pIC50: measured here: growth of uninfected CEM cells. The procedure, abridged: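 CEM (human) cells, HIV-1 infected vs uninfected, 5-point dosing, formazan growth read-out. Retest threshold 50% protection.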

For the compound `Cc1sc2nc3n(c(=O)c2c1C)N=CN(c1ccccc1)C3`, the pEC50 was < 4.00 and the pIC50 is < 4.00.

Take `CSc1ccc(OCC2OC2O)cc1` (centres undefined): the pEC50 was < 4.61 and the pIC50 was < 4.61.

`CN(C)C(=N)CSS(=O)(=O)O`: the pEC50 is 3.92 and the pIC50 is 3.74.

For `Cc1cc2c(cc1-c1cc3c(cc1C)C(C(C)C)=C(O)C(=O)/C3=C\Nc1nc(-c3ccccc3)cs1)/C(=C/Nc1nc(-c3ccccc3)cs1)C(=O)C(O)=C2C(C)C`, the pEC50 was < 4.00 and the pIC50 was 4.88.

Regarding `Cc1c(O)c2ccccc2n(C)c1=O`, the pEC50 is < 3.70 and the pIC50 was < 3.70.

As to `N=c1c2ccccc2c2ccccc2n1O`, the pEC50 is < 3.70 and the pIC50 is < 4.00.

As to `CCC1(CC2CCCN(C)C2)c2ccccc2Sc2ccccc21` (centres undefined), the pEC50 is < 3.70 and the pIC50 was 4.96.

`COC(=O)NC12CC3CC(CC(F)(C3)C1)C2`: the pEC50 was < 3.24 and the pIC50 was 3.84.

Regarding `CCOP(=S)(N/N=C1\CC2CCC1C2)OCC` (centres undefined), the pEC50 is < 3.70 and the negative logarithm of the IC50 (pIC50) is < 3.70.

As for `CC(=O)c1cccc(NC(=O)Nc2cccc(C)n2)c1`, the pEC50 was < 4.25 and the pIC50 is 5.16.

Regarding `Cc1nc2c3c(ncn2n1)Oc1c(c(-c2ccccc2)nn1-c1ccccc1)C3c1ccc(Cl)cc1` (centres undefined), the pEC50 is < 3.70 and the pIC50 is < 3.70.

Take `COc1cc(O)c2cc1Oc1ccc(cc1)CC1=NCCc3cc(OC)c(cc31)Oc1c(OC)c(OC)c(OC)c3c1[C@H](C2)N(C)CC3`: the result was inactive.

Consider `O=CCc1c2c(nc3ccccc13)C(=O)c1ccccc1C2=O`, for which the pEC50 is < 4.70 and the pIC50 is 5.10.

Turning to `N#C/C=C/c1ccc(Cl)cc1`, the pEC50 is < 3.66 and the pIC50 was < 3.66.

Regarding `CC(=C\c1ccccc1)/C=C(\C#N)C(N)=O`, the pEC50 was < 3.70 and the pIC50 is 4.01.

With `Cc1nc(-c2nc(C)c(C(=O)/C=C/c3ccc([N+](=O)[O-])cc3)s2)sc1C(=O)/C=C/c1ccc([N+](=O)[O-])cc1`, the pEC50 is < 4.32 and the pIC50 is < 4.32.

As for `C=C(C)C1CC=C(C)[C@](O)(C2(O)C[C@H](C(=C)C)CC=C2C)C1` (some centres undefined), the result was inactive.

As to `OC[C@@H](O)[C@H]1NC[C@@H](O)[C@H]1O`, the pEC50 is < 3.70 and the pIC50 is < 3.70.

Turning to `Cc1nnc(N/N=C(/C(=O)C(C#N)c2ccccc2)C(C#N)c2ccccc2)n1N` (centres undefined), the pEC50 is < 3.65 and the pIC50 is 4.41.

On to `Cc1ccc(N=Nc2c(N)nn3cc4c(nc23)CCCCC4)cc1`, for which the pEC50 was < 3.70 and the pIC50 was < 3.70.

Take `CN(C)CC1CCCCC(CN(C)C)C1=O` (centres undefined): the result was inactive.

As to `CCOC(=O)C1C(c2ccc(Cl)cc2Cl)NC(c2ccc(C)cc2)C(C(=O)OC)S1(=O)=O` (centres undefined), the pEC50 was < 4.84 and the pIC50 was < 4.84.

In the case of `O=C(NNc1nc(Cl)nc(Cl)n1)c1ccccc1`, the pEC50 is < 3.70 and the pIC50 is < 3.70.

Turning to `CC1C(=O)c2cc3c(cc2CCN(C)Cc2c1ccc1c2OCO1)OCO3` (centres undefined), the pEC50 was < 4.15 and the pIC50 was < 4.15.

Consider `BrC1(Br)C2/C=C\CCCCC21` (centres undefined), for which the result was inactive.

In the case of `O=C1C2ON3c4ccccc4C(=O)C3(c3ccccc3)C2C(=O)N1c1ccccc1` (centres undefined), the pEC50 is < 4.74 and the pIC50 is < 4.74.

In the case of `O=C(CCCl)Nc1c(Cl)cccc1Cl`, the outcome was inactive.

On to `Cc1nc2sccn2c1C(=O)NNC(N)=S`, for which the pEC50 is < 3.43 and the pIC50 was < 3.43.

In the case of `O=C1c2ccccc2-c2cc3ccccc3c(=O)n21`, the outcome was inactive.

`CC12CP(=O)(c3ccccc3)CC1C2(Cl)Cl` (centres undefined): the result was inactive.

In the case of `COC1=C(OC)CCC(/C(C#N)=C/c2ccc(OC)c(OC)c2)=C1`, the pEC50 is < 4.38 and the pIC50 was 4.67.

As for `O=C(O)c1ccccc1C1c2ccccc2Oc2ccccc21`, the pEC50 was < 3.70 and the pIC50 is 4.45.

Regarding `COc1ccc2c(c1)CCC1C[C@@H]3C[C@]21C=CC3=O` (some centres undefined), the pEC50 is < 3.74; the negative logarithm of the IC50 (pIC50) is 4.31 and < 4.55.

In the case of `NC(=O)C(F)(Cc1ccccc1)C(=O)O` (centres undefined), the pEC50 was < 3.70 and the pIC50 was < 3.70.

Consider `CCOC(=O)C(NC(=O)c1ccccc1)(Nc1ccc(S(=O)(=O)Nc2ncccn2)cc1)C(F)(F)F` (centres undefined), for which the pEC50 was < 3.70 and the pIC50 is < 3.70.

As to `CCC[CH2][Sn]([CH2]CCC)([O]C(=O)C(N)CSC)[O]C(=O)C(N)CSC` (centres undefined), the pEC50 was < 4.73 and the pIC50 was 6.89.

In the case of `CC12CCCCC1=[N+]([O-])C(C)(C)N2O` (centres undefined), the pEC50 was < 3.70 and the pIC50 is < 3.70.

Consider `O=S(=O)(Nc1cccc(F)c1)c1ccc(F)cc1`, for which the outcome was inactive.

In the case of `N#Cc1c(-c2ccccc2)cc(-c2ccccc2)n(C2OC(CO)C(O)C(O)C2O)c1=S` (centres undefined), the pEC50 is < 3.70; the pIC50 is 4.82 and 4.57.

In the case of `NC1=NN(c2ccccc2)C(=O)C1C(=O)CCC(=O)Nc1cccc(Cl)c1` (centres undefined), the pEC50 is < 3.47 and the negative-log IC50 (pIC50) was < 3.47.

Turning to `Cc1cc(-c2ccccc2)nc(Nc2cc3ccccc3[nH]2)n1`, the pEC50 is < 3.22 and the pIC50 is < 3.22.

For `NC(=O)Cc1ncn(-c2ccccc2)n1`, the pEC50 was < 3.70 and the pIC50 is < 3.70.

As for `Cc1cc(S(=O)(=O)N2CCNC2=O)c(S)cc1Cl`, the negative logarithm of the EC50 (pEC50) is 4.05 and the pIC50 was 3.60.

As to `COc1ccc(-c2nnc3c4ccccc4sn23)cc1`, the pEC50 was < 4.59 and the negative-log IC50 (pIC50) was 4.65.

`CC1=C(C(=O)Nc2cccc(Cl)c2)C(c2ccc([N+](=O)[O-])cc2)C(C(=O)Nc2cccc(Cl)c2)=C(C)N1`: the pEC50 was < 5.01 and the pIC50 is 5.10.

Take `O=C1C=C[C@@]23CC1C(O)C[C@H]2C=Cc1ccccc13` (some centres undefined): the pEC50 is < 3.99 and the pIC50 was < 3.99.

On to `CCCC(=O)OCC1OC2OC(C)(C)OC2C2OC(C)(C)OC12` (centres undefined), for which the outcome was inactive.

With `Cc1nc(N)nc(N)c1CCCCc1ccccc1`, the result was inactive.

Take `C=C1c2nc3ccccc3n2C=C(c2ccc(OC)cc2)N1c1ccc(OC)cc1`: the pEC50 was < 3.70 and the pIC50 was 4.48.

As for `O=c1oc2ccccc2c(O)c1C=NC(=S)c1ccncc1`, the pEC50 is < 3.70 and the pIC50 was 3.74.

For `COc1cc2c(c(OC)c1OC)C(=O)[C@@H](O)[C@H]2NC(N)=O`, the pEC50 is < 3.70 and the pIC50 is < 3.70.

With `CS(=O)(=O)NNS(=O)(=O)c1ccccc1`, the pEC50 is < 4.12 and the pIC50 was < 4.12.

Regarding `O=c1[nH][nH]c(=O)c2nc3c(nc12)c1nc2c(=O)[nH][nH]c(=O)c2nc1c1nc2c(=O)[nH][nH]c(=O)c2nc31`, the outcome was inactive.

Take `CCn1c(=S)[nH]c2sc3c(c2c1=O)CCCCC3`: the pEC50 was < 3.97 and the pIC50 was 4.66.

On to `Cc1cc2cc3ccccc3cc2c(=O)[nH]1`, for which the pEC50 is < 3.70 and the pIC50 is 3.74.

Consider `Oc1ccc2ccccc2c1Br`, for which the pEC50 is < 3.70 and the negative-log IC50 (pIC50) was 3.79.

For `CS(=O)(=O)c1ccc(-c2cc(-c3ccc(S(C)(=O)=O)cc3)[n+](-c3cc(-c4ccccc4)c([O-])c(-c4ccccc4)c3)c(-c3ccc(S(C)(=O)=O)cc3)c2)cc1`, the pEC50 was < 3.16 and the pIC50 is < 3.16.

`CCCCCC#CC1OC12CCCCC2` (centres undefined): the pEC50 is < 3.90 and the pIC50 was < 3.90.

On to `Cc1nc2sccn2c1C(N)=O`, for which the pEC50 was < 3.70 and the pIC50 is < 3.70.

For the compound `O=C(O)c1cc(-c2ccccc2O)nc2ccccc12`, the pEC50 is < 3.45 and the pIC50 was 3.72.

Regarding `CC(NC(=O)/C(=C/c1ccccc1O)NC(=O)c1ccccc1)C(=O)O` (centres undefined), the pEC50 is < 3.70 and the pIC50 was < 3.70.

For `O=c1c(O)c(-c2ccc(O)cc2)oc2cc(O)cc(O)c12`, the pEC50 is < 4.01 and the pIC50 was 4.29.

With `O=c1ccc2cc(O)c(O)cc2o1`, the pEC50 is < 2.85 and the pIC50 was 4.03.

Take `Cc1nc(N)[nH]c(=O)c1CCCNc1ccc(C(=O)NC(CCC(=O)O)C(=O)O)cc1` (centres undefined): the pEC50 was < 3.70 and the pIC50 was 5.56.

As to `CCOC(=O)/C(=C/c1ccc(OCc2ccccc2)cc1)P(=O)(OCC)OCC`, the pEC50 was < 4.35 and the pIC50 is 5.37.

Turning to `COC(=O)[C@@H]1CC2(CCOCc3ccccc3)C=CCN3CC[C@@]1(c1ccccc1NC(=O)C(C)(C)C)C32` (some centres undefined), the pEC50 is < 3.90 and the pIC50 is < 3.90.

Consider `C(#C[C@@]12CCC[C@@H]1NCO2)c1ccc2c(c1)OCO2`, for which the pEC50 was < 3.70 and the pIC50 was 4.30.

As to `CN(C)c1c(C2OC(CO)C(O)C2O)c(=O)c1=O` (centres undefined), the pEC50 was < 3.70 and the pIC50 is < 3.70.

Turning to `CCCCCC=C(c1cc(C)c(OC)c(C(=O)OC)c1)c1cc(C)c(OC)c(C(=O)OC)c1`, the pEC50 was < 4.29 and the pIC50 was 4.59.

As for `Cc1cc(S(=O)(=O)O)c(NC(=O)c2oc3cc(O)ccc3c(=O)c2C)cc1Cl`, the pEC50 was < 3.23 and the pIC50 was < 3.23.

In the case of `CCCCNC(C)(C)C(SSSC(c1cccs1)C(C)(C)NCCCC)c1cccs1` (centres undefined), the pEC50 was < 3.70 and the pIC50 was 4.70.

Regarding `COC(=O)C1C2CC3C(OC(=O)C31)C2I` (centres undefined), the outcome was inactive.

As for `OCC(c1ccccc1)[P+](c1ccccc1)(c1ccccc1)c1ccccc1` (centres undefined), the pEC50 is < 3.70 and the pIC50 is 4.95.

With `O=C/C(=C1/C=Cc2cc([N+](=O)[O-])ccc2S1)c1ccccc1`, the pEC50 is < 3.70 and the pIC50 was < 3.70.

On to `O=C(c1ccccc1SSc1ccccc1C(=O)N1CSC[C@@H]1CO)N1CSC[C@H]1CO`, for which the pEC50 is < 3.70 and the pIC50 is 3.97.

As for `COc1cccc(/C=C(\NC(C)=O)c2nc3ccc(Cl)cc3[nH]2)c1`, the result was inactive.
